# Like-named read-outs stand apart in the source and are kept apart here.
# Columns and labels:
# in vitro = assay: in vitro
# Method: The PAMPA-BBB assay was conducted according to the methodology followed by Di et al., with some modifications as described below ([15]). First, the BBB solution was prepared by dissolving 8 mg of PBL and 4 mg of cholesterol in 600 μl of n-dodecane. The initial donor solution was prepared by mixing 1 ml of extract (10 mg ml^−1 in EtOH) with 1 ml of buffer (PBS, pH = 7.4, 10 mM). The filter membrane of the donor plate was carefully coated with 5 μl of BBB solution. The acceptor plate was filled with 350 μl of buffer, and the donor plate was carefully assembled over the acceptor plate like a “sandwich.” Finally, the donor plate was filled with 350 μl of donor solution, covered, and incubated for 4 h at 37°C in the dark. After incubation time, 300 μl of the solution was taken from both plates, transferred to separate vials, and dried in the SpeedVac system at 40°C and 13 mbar pressure. Dried acceptor and donor solution were dissolved in 50 μl of pure EtOH before subjecting to UHPLC-Q-TOF-MS analysis. Permeability across in vitro BBB of the bioactive compound was measured according to Equation (1) ([25]), with some modifications in concentration rates.
# (1) Pe=-ln[1-CA(t)/Ce]/A^*(1/VD+1/VA)^*t
# Cequilibrium was calculated according to the following equation ([2]):
# (2) Cequilibrium=[CD(t)*VD+CA(t)*VA]/(VD+VA)
# [1] = ref PubChem database, cited from earlier work
# [2] = compound within LPLE (Nothofagus pumilio, lenga PLE extract), N.D = not detected in acceptor
# [3] = compounds identified in LPLE extract
# [4] = PAMPA, pH 7.4, PAMPA-BBB log Pe (cm s−1)
# [5] = PAMPA, pH 7.4, PAMPA-BBB log Pe, compound within LPLE (Nothofagus pumilio, lenga PLE extract), N.D = not detected in acceptor
# [6] = compound within LPLE (Nothofagus pumilio, lenga PLE extract), classes based on Könczöl et al.
# [7] = compounds of RSFE extract, octanol-water partition coefficient
compound,measurement,setting,value
CC(=O)O[C@H]1C[C@H](C)O[C@@H](O[C@H]2CC[C@]3(C=O)[C@H]4[C@H](O)C(=O)[C@]5(C)[C@@H](c6ccc(=O)oc6)CC[C@]5(O)[C@@H]4CC[C@]3(O)C2)[C@H]1O [Kalantuboside A],Cross BBB potential,in vitro; compound within KD extract,-
same,Log P,[1]; compounds of KD extract,7.5
O=C(/C=C/c1ccc(O)c(O)c1)O[C@@H](C(=O)O)[C@@H](O)C(=O)O [Caftaric acid],Cross BBB potential,in vitro; PAMPA,-
same,Log P,[1]; compounds of ASFE extract,0.1
O=Cc1ccc(O)c(O)c1 [Protocatechuic aldehyde],PAMPA-BBB log Pe (cm s−1),"in vitro; PAMPA, pH 7.4",−5.75 cm s−1
same,PAMPA-BBB log Pe,in vitro; [2],−5.13 cm s−1
same,Log P,[1]; [3],1.1
same,Log P,[1]; compounds of ASFE extract,1.1
C[C@H]1[C@H](C)CC[C@]2(C(=O)O)CC[C@]3(C)C(=CC[C@@H]4[C@@]5(C)C[C@@H](O)[C@H](O)C(C)(C)[C@@H]5CC[C@]43C)[C@H]12 [Corosolic acid],Cross BBB potential,in vitro; PAMPA,++
same,Papp at 4 h,in vitro; [4],6.03 ×10⁻⁶ cm/s
same,Papp at 4 h,in vitro; [5],8.51 ×10⁻⁶ cm/s
same,Log P,[1]; [3],6.4
O=C(/C=C/c1ccc(O)cc1)O[C@@H](C(=O)O)[C@@H](O)C(=O)O [Coutaric acid],Cross BBB potential,in vitro; compound within ASFE extract,-
same,Cross BBB potential,in vitro; [6],-
same,Log P,[1]; [3],0.4
same,Log P,[1]; compounds of ASFE extract,0.4
CC(C)c1cc2c(c(O)c1O)[C@@]13CCCC(C)(C)[C@@H]1[C@H](OC3=O)C2=O [Galdosol],Cross BBB potential,in vitro; PAMPA,+++
same,PAMPA-BBB log Pe (cm s−1),"in vitro; PAMPA, 4 h, pH 7.4",−4.41 cm s−1
same,Log P,[1]; [7],4
CC/C=C/CC(O)C(O)/C=C/C(O)CCCCCCCC(=O)O (stereo not shown),Cross BBB potential,in vitro; PAMPA,+++
same,PAMPA-BBB log Pe (cm s−1),"in vitro; PAMPA, 4 h, pH 7.4",−3.73 cm s−1
same,Log P,[1]; [7],2.6
CC(C)c1cc2c(c(O)c1O)C(=O)C1CCCC(C)(C)C1CC2 (stereo not shown) [Rosmaridiphenol],Cross BBB potential,in vitro; PAMPA,+
same,PAMPA-BBB log Pe (cm s−1),"in vitro; PAMPA, 4 h, pH 7.4",−5.55 cm s−1
same,Log P,[1]; [7],5.9
"C[C@]12C[C@@H](O)[C@H]3[C@@H](CC[C@]4(O)C[C@@H](O)CC[C@]34CO)[C@@]1(O)CC[C@@H]2c1ccc(=O)oc1 [11α,19-dihydroxytelocinobufagin]",Cross BBB potential,in vitro; compound within KD extract,-
same,Log P,[1]; compounds of KD extract,3.63
O=C(O[C@@H]1Cc2c(O)cc(O)cc2O[C@@H]1c1ccc(O)c(O)c1)c1cc(O)c(O)c(O)c1 [(-)-Epicatechin gallate],Cross BBB potential,in vitro; compound within ASFE extract,-
same,Cross BBB potential,in vitro; [6],-
same,Log P,[1]; [3],1.5
same,Log P,[1]; compounds of ASFE extract,1.5
CC(C)c1cc2c(cc1O)C1(C)CCC(=O)C(C)(C)C1CC2 (stereo not shown) [Hinokione],Cross BBB potential,in vitro; compound within RSFE extract,-
same,Log P,[1]; [7],4.9
CC(C)c1cc2c(c(O)c1O)[C@@]13CCCC(C)(C)[C@@H]1[C@H](OC3=O)[C@H]2O [Rosmanol],Papp at 4 h,"in vitro; PAMPA, pH 7.4, PAMPA-BBB log Pe (cm s−1), compound within RSFE extract, 4 h, 37°C, PBS pH 7.4",145 ×10⁻⁶ cm/s
same,Cross BBB potential,in vitro; compound within RSFE extract,+++ (log Pe > −4.5)
same,Log P,[1]; [7],3.4
C[C@H]1O[C@H](O[C@H]2CC[C@]3(C=O)[C@H]4CC[C@]5(C)[C@@H](c6ccc(=O)oc6)CC[C@]5(O)[C@@H]4CC[C@]3(O)C2)[C@H](O)[C@@H](O)[C@@H]1O [Kalanchoside A],Cross BBB potential,in vitro; compound within KD extract,-
same,Log P,[1]; compounds of KD extract,−0.1
Kalandaigremoside C,Cross BBB potential,in vitro; compound within KD extract,-
same,Log P,[1]; compounds of KD extract,7.2
C=C(C)[C@@H]1CC[C@]2(C(=O)O)CC[C@]3(C)[C@H](CC[C@@H]4[C@@]5(C)CC[C@H](O)[C@@](C)(CO)[C@@H]5CC[C@]43C)[C@@H]12 [Anemosapogenin],Cross BBB potential,in vitro; PAMPA,++ (key: -: not detected in acceptor; +: log Pe > −6.5; ++: log Pe > −5.5; +++: log Pe > −4.5)
same,PAMPA-BBB log Pe (cm s−1),"in vitro; PAMPA, pH 7.4",−5.26 cm s−1
same,Log P,[1]; [7],7.5
CC(=O)OC(C)(C)[C@@H]1CC[C@@]2(C)CO[C@]3(C)C=CO[C@]23C1 [Phytuberin],Cross BBB potential,in vitro; PAMPA,++
same,PAMPA-BBB log Pe (cm s−1),"in vitro; PAMPA, 4 h, pH 7.4",−4.51 cm s−1
same,Log P,[1]; compounds of T33 extract,2.3
OC[C@H]1O[C@@H](Oc2cc(O)cc(/C=C/c3ccc(O)cc3)c2)[C@H](O)[C@@H](O)[C@@H]1O [Piceid],Cross BBB potential,in vitro; [6],-
same,Log P,[1]; [3],1.7
same,Log P,[1]; compounds of ASFE extract,1.7
COc1ccc([C@@H]2CC(=O)c3c(O)cc(O)cc3O2)cc1O [Hesperetin],Papp at 4 h,"in vitro; PAMPA, pH 7.4, PAMPA-BBB log Pe",5.01 ×10⁻⁶ cm/s
same,Log P,[1]; [3],2.4
O=C1c2c(O)cc(O)cc2O[C@H](c2ccc(O)cc2)[C@H]1O [Aromadendrin],Cross BBB potential,in vitro; compound within ASFE extract,-
same,Cross BBB potential,in vitro; [6],-
same,Log P,[1]; [3],1.8
same,Log P,[1]; compounds of ASFE extract,1.8
CC(=O)O[C@@H]1C[C@H](O)C[C@@]2(O)CC[C@@H]3[C@@H]4[C@@H](C[C@]5(C)[C@@H](c6ccc(=O)oc6)CC[C@]35O)O[C@H](O)[C@]412 [Bryophyllin B],Cross BBB potential,in vitro; compound within KD extract,-
same,Log P,[1]; compounds of KD extract,0.6
O=C(O)c1ccc(O)c(O)c1 [Protocatechuic acid],Cross BBB potential,in vitro; PAMPA,+++
same,PAMPA-BBB log Pe (cm s−1),"in vitro; PAMPA, 4 h, pH 7.4",−3.92 cm s−1
same,Papp at 4 h,in vitro; [4],148 ×10⁻⁶ cm/s
same,Papp at 4 h,"in vitro; PAMPA, pH 7.4, PAMPA-BBB log Pe (cm s−1), compound within KD extract, 4 h, 37°C, PBS pH 7.4",105 ×10⁻⁶ cm/s
same,Papp at 4 h,in vitro; [5],138 ×10⁻⁶ cm/s
same,Log P,[1]; [3],1.1
same,Log P,[1]; compounds of ASFE extract,1.1
same,Log P,[1]; compounds of KD extract,1.1
C=C1CC[C@]2(C(=O)O)CC[C@]3(C)C(=CC[C@@H]4[C@@]5(C)CC[C@H](O)C(C)(C)[C@@H]5CC[C@]43C)[C@@H]2[C@H]1C [Micromeric acid],Cross BBB potential,in vitro; compound within RSFE extract,-
same,Log P,[1]; [7],6.5
Caffeoylshikimic acid,Cross BBB potential,in vitro; PAMPA,++
same,PAMPA-BBB log Pe (cm s−1),"in vitro; PAMPA, 4 h, pH 7.4",−5.46 cm s−1
same,Log P,[1]; compounds of T33 extract,0.9
C[C@@H]1C(=O)C[C@@H](C(C)(C)O)O[C@@H]2C[C@@]3(C)[C@@H]4CC=C5[C@@H](C=C(O)C(=O)C5(C)C)[C@]4(C)C(=O)C[C@]3(C)[C@@H]12 [Cucurbitacin S],Cross BBB potential,in vitro; [6],-
same,Log P,[1]; [3],3.2
same,Log P,[1]; compounds of ASFE extract,3.2
COc1cc2oc(-c3ccc(O)cc3)cc(=O)c2c(O)c1OC [Crisimaritin],Cross BBB potential,in vitro; PAMPA,+++
same,PAMPA-BBB log Pe (cm s−1),"in vitro; PAMPA, 4 h, pH 7.4",−4.36 cm s−1
same,Log P,[1]; [7],2.0
O=C(/C=C/c1ccc(O)c(O)c1)c1ccc(O)cc1O [Butein],Papp at 4 h,"in vitro; PAMPA, pH 7.4, PAMPA-BBB log Pe (cm s−1), compound within ASFE extract, 4 h, 37°C, PBS pH 7.4",2.19 ×10⁻⁶ cm/s
same,Papp at 4 h,in vitro; [5],16.6 ×10⁻⁶ cm/s
same,Cross BBB potential,in vitro; compound within ASFE extract,+ (log Pe > −6.5)
same,Cross BBB potential,in vitro; [6],++ (log Pe > −5.5)
same,Log P,[1]; [3],2.8
same,Log P,[1]; compounds of ASFE extract,2.8
O=C(O)c1ccc(O)cc1 [p-salycilic acid],Cross BBB potential,in vitro; compound within RSFE extract,+++ (log Pe > −4.5)
same,PAMPA-BBB log Pe (cm s−1),"in vitro; compound within RSFE extract, 4 h, 37°C, PBS pH 7.4",−4.18 cm s−1
same,Cross BBB potential,in vitro; compound within T33 extract,++ (log Pe > −5.5)
same,PAMPA-BBB log Pe (cm s−1),"in vitro; compound within T33 extract, 4 h, 37°C, PBS pH 7.4",−4.75 cm s−1
same,Log P,[1]; [7],1.6
CC(CC(=O)CC(C)C1CC(O)C2(C)C3=C(C(=O)CC12C)C1(C)CCC(O)C(C)(CO)C1CC3)C(=O)O (stereo not shown) [Ganolucidic acid C],Cross BBB potential,in vitro; compound within ASFE extract,-
same,Cross BBB potential,in vitro; [6],-
same,Log P,[1]; [3],3.1
same,Log P,[1]; compounds of ASFE extract,3.1
O=c1ccc2cc(O[C@@H]3O[C@H](CO)[C@@H](O)[C@H](O)[C@H]3O)c(O)cc2o1 [Esculin],Cross BBB potential,in vitro; PAMPA,+++ (key: -: not detected in acceptor; +: log Pe > −6.5; ++: log Pe > −5.5; +++: log Pe > −4.5)
same,Papp,in vitro; [4],50.1 ×10⁻⁶ cm/s
same,Log P,[1]; [7],−0.6
COc1cc(C=O)cc(OC)c1O [Syringaldehyde],Papp,in vitro; [5],13.5 ×10⁻⁶ cm/s
same,Log P,[1]; [3],0.1
same,Log P,[1]; compounds of T33 extract,1.1
COC(=O)[C@]12CCCC(C)(C)[C@@H]1CCc1cc(C(C)C)c(O)c(O)c12 [Methyl carnosate],Cross BBB potential,in vitro; PAMPA,++
same,Papp at 4 h,in vitro; [4],5.5 ×10⁻⁶ cm/s
same,Log P,[1]; [7],5.2
COc1cc(/C=C/C=O)ccc1O [Coniferaldehyde],PAMPA-BBB log Pe (cm s−1),"in vitro; PAMPA, pH 7.4",−4.24 cm s−1
same,PAMPA-BBB log Pe,in vitro; [2],−4.65 cm s−1
same,Log P,[1]; [3],1.5
same,Log P,[1]; compounds of ASFE extract,1.5
O.Oc1cc(O)c2c(c1)O[C@H](c1ccc(O)c(O)c1)[C@@H](O)C2 [Catechin],Cross BBB potential,in vitro; PAMPA,-
same,Log P,[1]; [3],0.4
same,Log P,[1]; compounds of ASFE extract,0.4
Resibufagin,Cross BBB potential,in vitro; compound within KD extract,-
same,Log P,[1]; compounds of KD extract,2.4

# Reference: article PMC9243654 (Frontiers in Nutrition, 2022)
